From PMC8362126, “Proteolysis Targeting Chimera (PROTAC) for Macrophage Migration Inhibitory Factor (MIF) Has Anti‐Proliferative Activity in Lung Cancer Cells” (Angewandte Chemie (International Ed. in English), 2021)
“And” between values parts separate entries of the source, which are not always exact repeats. Identical values can stand only once. “Also recorded” adds a separate entry of the source.

Assays:
[1] = biological target: T1, MIF (Homo sapiens, UniProt P14174); assay: MIF degradation in A549 cells, western-blot; format: cell-based; design: endogenous in cells; host or cells: A549 (ATCC CCL-185); conditions: A549 cells; for rescue of MD9 mediated MIF degradation: 2 hours pretreatment (1 100 µM, 3 50 µM, 4 50 µM, Bortezomib), then 10 µM MD9 12 h; for rescue of MD13 mediated MIF degradation: co-treatment (Bortezomib) or 1 hour pretreatment (3, 4) with MD13
T1 sequence (P14174 2-115 limits assumed): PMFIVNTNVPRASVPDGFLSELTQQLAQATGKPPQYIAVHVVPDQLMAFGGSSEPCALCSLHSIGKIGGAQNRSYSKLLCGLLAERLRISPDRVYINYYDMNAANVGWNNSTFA
Protocol: The concentration dependence of PROTAC MD13‐mediated induction of MIF degradation in A549 cells was investigated using western‐blot. […] The MIF levels were normalized to the vehicle treated control and plotted to the respective MD13 concentrations. This provided a DC50 of around 100 nM and a maximal degradation of around 90–95 % at concentrations higher than 1 μM (Figure 3 B). The DC50 of MD13 measured by ELISA assay was about 200 nM (Figure 3 C), which is in line with the result from western‐blot. […]
Cell lysates were prepared using the protocol described above. About 10−40 μg of total protein was mixed with the 4× Laemmli Loading Dye (250 mM Tris, pH 6.8, 40% glycerol, 5% SDS, 0.005% bromophenol blue, 4% β-mercaptoethanol) and heated at 95−100 °C for 5 min and loaded onto a 12% Bis-Tris gel (Bio-Rad Laboratories, #4561084) and proteins were separated at 120V. Afterwards, proteins were transferred to polyvinylidene fluoride (PVDF) membranes, subsequently non-specific antibody binding was blocked with 5% nonfat dry milk (BIO-RAD, #1706404) in TBST buffer and incubated overnight at 4 °C with one of the following primary antibodies: anti-MIF (1:1000, ThermoFisher, #PA5-27343 ) or anti-β-actin (1:10000 Cell Signalling, #8457). The membranes were further incubated with a goat anti-rabbit HRP-conjugated secondary antibody (1:2000, DAKO, p0448) for 2 h at room temperature. Proteins were visualized with an ECLTM Prime Western Blotting System (GE Healthcare #RPN2232). The immunoblot was generated by ChemiDoc MP Imaging Systems (Bio-Rad) and analyzed by the ImageJ software. […]
As a control, the same experiment was repeated and analyzed by a western-blot assay (Figure 3B). The potency estimated from the Western blot assay was 1 µM (Figure 3C), which is consistent with the result from the ELISA assay. The “Hook effect” […]

[2] = biological target: T1, MIF; assay: MIF degradation in A549 cells, cell lysate-based ELISA; design: endogenous in cells; host or cells: A549 (ATCC CCL-185); conditions: for Dmax at 20 µM / degradation [%] 2 μM / degradation (%) 20 µM: vs DMSO, mean±SD n=3
Protocol: In addition, A549 cells have been successfully used for assessing activity of cereblon ligand‐based PROTACs previously.[42] Therefore, A549 is a suitable cell line for evaluating the effect of our putative MIF‐directed PROTACs MD1 to MD12 on MIF protein levels. The reduction in MIF levels were monitored in A549 cells that were treated with two different PROTAC concentrations (20 and 2 μM) for 12 h in order to estimate the dose dependency, which is important for PROTACs because of the Hook effect.[35] The MIF levels in cell lysates were analyzed using an enzyme‐linked immunosorbent assay (ELISA).
S3. ELISA screening of MIF protein level on MIF-directed PROTACs
Cell culture. Human A549 lung cancer cells (ATCCCCL-185) or HEK293 kidney […]
containing 10% (v/v) fetal bovine serum (FBS), 100 U/mL penicillin/streptomycin […]
ELISA. 7×10^5 A549 cells per well were plated in 6-well plates. The next day, cells were treated with a solution of compounds or the vehicle for 12 h. Subsequently, the culture medium was removed and cells were washed twice with cold PBS and collected after trypsin (0.5 mL) degestion. Cells were then lyzed in lysis buffer (150 mM NaCl, 50 mM Hepes pH 7.5, 5 mM EDTA, 0.1% (w/v) NP40) containing protease inhibitor cocktail (Roche, #11836153001) and resuspended vigourously. The supernatant was collected after spinning down at 16 000g at 4 °C for 30 min. The total protein concentration was determined with PierceTM BCA protein assay kit ( ThermoFisher , #23225). The protein concentration was normalized between samples. The relative MIF levels from 1µg total protein were determined by ELISA with the human MIF DuoSet ELISA kit according to the instructions of the manufacturer (R&D systems, #DY289).
Figure S1. Screening of compounds for MIF degradation activity by cell lysate -based ELISA.
A549 cells were treated with compounds at (A) 20 or (B) 2 µM for 12 h. Data was normalized […]
(1 picture or pasted object on this page, not shown here)

[3] = biological target: T1, MIF; assay: as above; design: endogenous in cells; host or cells: A549 (ATCC CCL-185); conditions: 12 h, vs DMSO, mean±SD n=3
[4] = biological target: T1, MIF; assay: MIF catalyzed 4-HPP tautomerization assay; format: biochemical; conditions: for IC50: 4-HPP conversion assay; for Ki: MIF catalyzed 4-HPP tautomerization, n=3
Protocol: S2. MIF Tautomerase activity IC50 study
The protocol for measuring inhibition of MIF tautomerase enzyme activity and enzyme kinetics was described previously.[8] Briefly, 180 µL of a 500 nM MIF solution in boric acid buffer (435 mM, pH 6.2) was mixed with 10 µL of a 20 mM EDTA solution in demiwater and 10 µL of a solution of the desired compound dissolved in DMSO or blanc DMSO. This mixture was pre-incubated at room temperature for 10 min. Next, 50 µL of this mixture was mixed with 50 µL of a 1 mM 4-HPP solution in ammonium acetate buffer (50 mM, pH 6.0). Subsequently, MIF tautomerase activity was monitored by measuring the increase of UV absorbance at 306 nm over time. MIF tautomerase activity in the presence a blank DMSO dilution was set to 100% enzyme activity. Non-catalyzed conversion of the substrate in absence of MIF was set to 0%.
Data from the first three minutes were used to calculate the initial velocities. All experiments were repeated three times and calculations were performed with the program GraphPad Prism.
Table S1. 4-HPP conversion assay results of MIF PROTACs
(also on this page, place not known: p rotocol previously. subs trate log [MD-1] (10^-6 M) Activity of MIF tautomerase(%) -2 -1 0 1 2 0 50 100 log [MD-2] (10^-6 M) Activity of MIF tautomerase(%) -2 -1 0 1 2 0 50 100)

| Dmax at 20 µM ([2]; A549, 12 h, A549 cells, 12 h) [%] | degradation [%] 2 μM ([2]; A549 cells, 12 h) | IC50 [4] [nM] | Ki [4] [nM] | Structure (SMILES) | further results |
| --- | --- | --- | --- | --- | --- |
| – | – | – | – | COC(=O)CC1CC(c2ccc(O)cc2)=NO1 (centres unmarked) [compound 1, ISO 1] | rescue of MD9 mediated MIF degradation [1]: partial to complete rescue; also recorded: rescued |
| – | – | – | 370 ± 30 | COc1ccc(-c2cc3ccc(O)cc3oc2=O)cc1 [compound 2, reference compound] | – |
| 58 ± 8 | n.s. | 895 ± 82 | 597 ± 55 | O=C1CCC(N2C(=O)c3cccc(NC(=O)CCCCc4cn(CCC(=O)Nc5ccc(-c6cc7ccc(O)cc7oc6=O)cc5)nn4)c3C2=O)C(=O)N1 (centres unmarked) [MD5] | – |
| – | n.s. | 1500 ± 130 | 999 ± 87 | O=C1CCC(N2C(=O)c3cccc(NC(=O)Cc4ccc(-n5cc(CCCC(=O)Nc6ccc(-c7cc8ccc(O)cc8oc7=O)cc6)nn5)cc4)c3C2=O)C(=O)N1 (centres unmarked) [MD6] | degradation (%) 20 µM ([2]; A549 cells, 12 h): n.s. and did not trigger MIF reduction |
| 16 ± 7 | n.s. | 262 ± 35 | 175 ± 23 | O=C1CCC(N2C(=O)c3cccc(NCc4cn(CC(=O)Nc5ccc(-c6cc7ccc(O)cc7oc6=O)cc5)nn4)c3C2=O)C(=O)N1 (centres unmarked) [MD1] | – |
| 50 ± 3 | n.s. | 233 ± 26 | 155 ± 17 | O=C1CCC(N2C(=O)c3cccc(NC(=O)CCCCc4cn(CC(=O)Nc5ccc(-c6cc7ccc(O)cc7oc6=O)cc5)nn4)c3C2=O)C(=O)N1 (centres unmarked) [MD4] | – |
| 22 ± 9 | n.s. | 182 ± 16 | 121 ± 11 | O=C1CCC(N2C(=O)c3cccc(NC(=O)CCCc4cn(CC(=O)Nc5ccc(-c6cc7ccc(O)cc7oc6=O)cc5)nn4)c3C2=O)C(=O)N1 (centres unmarked) [MD3] | – |
| – | 55±9% | 147 ± 13 | 98 ± 9 | O=C1CCC(N2C(=O)c3cccc(NCc4cn(CCC(=O)Nc5ccc(N6Cc7ccc(O)cc7OC6=O)cc5)nn4)c3C2=O)C(=O)N1 (centres unmarked) [MD10] | – |
| – | n.s. | 143 ± 11 | 95 ± 7 | O=C1CCC(N2C(=O)c3cccc(NC(=O)CCCc4cn(CCC(=O)Nc5ccc(N6Cc7ccc(O)cc7OC6=O)cc5)nn4)c3C2=O)C(=O)N1 (centres unmarked) [MD11] | degradation (%) 20 µM ([2]; A549 cells, 12 h): 40±8% |
| 31 ± 3 | n.s. | 288 ± 25 | 192 ± 17 | O=C1CCC(N2C(=O)c3cccc(NC(=O)CCc4cn(CC(=O)Nc5ccc(-c6cc7ccc(O)cc7oc6=O)cc5)nn4)c3C2=O)C(=O)N1 (centres unmarked) [MD2] | – |
| – | – | – | – | CC(C)C[C@H](NC(=O)[C@H](Cc1ccccc1)NC(=O)c1cnccn1)B(O)O [Bortezomib] | rescue of MD9 mediated MIF degradation [1]: considerably decreased; also recorded: rescued; rescue of MD13 mediated MIF degradation [1]: inhibited the degradation of MIF; rescue of MD13 mediated MIF degradation ([1]; listed as bortezomib): able to abolish the MD13 triggered degradation |

| Structure (SMILES) | Dmax at 20 µM ([2]; A549, 12 h, A549 cells, 12 h) [%] | degradation [%] 2 μM ([2]; A549 cells, 12 h) | IC50 [4] [nM] | Ki [4] [nM] | further results |
| --- | --- | --- | --- | --- | --- |
| O=C1CCC(N2C(=O)c3cccc(NCCCCCCC(=O)Nc4ccc(N5Cc6ccc(O)cc6OC5=O)cc4)c3C2=O)C(=O)N1 (centres unmarked) [MD9] | 92 ± 10 | 55±4% | 76 ± 4 | 51 ± 3 | DC50 ([1]; 12 h, western-blot, read-out: DC50 (potency estimated from western blot)): 1000 nM and ~1500 nM; time of treatment after which MIF degradation becomes visible ([1]; MD9 at 10 μM): 3 h; Dmax ([2]; A549, A549 cells, 12 h, ELISA, read-out: maximal degradation): > 90%; DC50 ([2]; A549 cells, 12 h, ELISA, read-out: half-maximal degradation concentration (DC50)): 1500 nM and ~1500 nM; Hook effect ([2]; A549 cells, at 20 μM, ELISA and western-blot): Hook effect; degradation [%] 0.2 μM [3]: 24±4% |
| O=C(CCCCNc1cccc2c1C(=O)N(C1CCC(=O)NC1=O)C2=O)NCc1ccc(N2Cc3ccc(O)cc3OC2=O)cc1 (centres unmarked) [MD8] | – | 21±7% | 129 ± 8 | 86 ± 5 | Dmax at 20 µM ([2]; A549 cells, 12 h): 51 ± 4% |
| O=C(Cc1ccc(N2Cc3ccc(O)cc3OC2=O)cc1)NCc1cn(-c2ccc(CC(=O)Nc3cccc4c3C(=O)N(C3CCC(=O)NC3=O)C4=O)cc2)nn1 (centres unmarked) [MD12] | 38 ± 6 | n.s. | 138 ± 6 | 92 ± 4 | – |
| O=C1CCC(N2C(=O)c3cccc(NCCCCCCCCCC(=O)Nc4ccc(N5Cc6ccc(O)cc6OC5=O)cc4)c3C2=O)C(=O)N1 (centres unmarked) [MD14] | – | 64±2% | 97 ± 6 | 65 ± 4 | degradation [%] 0.2 μM [3]: 51±2% |
| O=C1CCC(N2C(=O)c3cccc(NCCCCC(=O)Nc4ccc(N5Cc6ccc(O)cc6OC5=O)cc4)c3C2=O)C(=O)N1 (centres unmarked) [MD7] | – | n.s. | 82 ± 4 | 55 ± 3 | Dmax at 20 µM ([2]; A549 cells, 12 h): 61 ± 7% |
